This assay deals with Huh7 cells expressing a subgenomic RNA replicon of Con1 (genotype 1b) sequence origin. Description: microbe, parasite or virus in culture. To be noted: Hepatitis C virus.

Experimental findings from patent publication US20100009970A1, “COMPOSITIONS AND METHODS FOR TREATMENT OF VIRAL DISEASES” (Combinatorx (Singapore) Pte. Ltd., priority 2008, published 2010) are described below.

Molecules are shown by their SMILES. Structures can show the parent of a compound that is named as a salt. Where two headings read alike, the source gives them in different places.

The IC50 is the concentration needed to halve the response being measured. In general, IC25 refers to the concentration at which the effect reaches the 25% level.

In the case of `C[C@H]1[C@H](OC(=O)CCC(=O)O)O[C@@H]2O[C@@]3(C)CC[C@H]4[C@H](C)CC[C@@H]1[C@@]24OO3` [Artesunate, artesunate, reference compound], where the note is “Huh-7”, the half-inhibitory concentration (IC50) was 3.73 µM.

`C[C@H]1CC(=O)C[C@@H]2CC[C@H]3[C@@H]4CC[C@H](O)[C@@]4(C)CC[C@@H]3[C@]21C` [Mesterolone, mesterolone, reference compound]: the 50% inhibitory concentration (IC50) (Huh-7) was found to be 5.18 µM.

`CCCCOc1cc(C(=O)NCCN(CC)CC)c2ccccc2n1` [Dibucaine (e.g., hydrochloride), Dibucaine, reference compound] registered an IC50 (Huh-7) of 6.68 µM.

As to `Nc1ccn([C@@H]2O[C@H](CO)[C@@H](O)C2(F)F)c(=O)n1` [Gemcitabine (e.g., hydrochloride), Gemcitabine, reference compound], the concentration for half-maximal inhibition (IC50) (Huh-7) stood at 0.06 µM.

`COCCCC/C(=N\OCCN)c1ccc(C(F)(F)F)cc1` [Fluvoxamine (e.g., maleate), Fluvoxamine, reference compound] had a concentration for half-maximal inhibition (IC50) (Huh-7) of 23.8 µM.

Regarding `CC[C@]1(O)C[C@H]2CN(CCc3c([nH]c4ccccc34)[C@@](C(=O)OC)(c3cc4c(cc3OC)N(C=O)[C@H]3[C@@](O)(C(=O)OC)[C@H](OC(C)=O)[C@]5(CC)C=CCN6CC[C@]43[C@@H]65)C2)C1` [Vincristine (e.g., sulfate), Vincristine, reference compound], the IC50 (Huh-7) is 0.02 µM.

In the case of `COc1cc(C=O)ccc1O` [Vanillin (e.g., acetate), Vanillin], under “Huh-7”, the IC50 is 3.73 µM.

Where the note is “Huh-7”, `CCC(C)(C)C(=O)O[C@H]1C[C@@H](C)C=C2C=C[C@H](C)[C@H](CC[C@@H](O)C[C@@H](O)CC(=O)O)[C@H]21` [Simvastatin hydroxy acid, ammonium salt, simvastatin hydroxy acid, ammonium salt, reference compound] returned an IC50 of 13.4 µM.

Take `O=C(CCCN1CCC(O)(c2cccc(C(F)(F)F)c2)CC1)c1ccc(F)cc1` [Trifluperidol, reference compound]: half-maximal inhibition (Huh-7) (IC50) required 7.8 µM.

Turning to `Oc1cc(O)cc(/C=C/c2ccc(O)c(O)c2)c1` [Piceatannol, reference compound], the IC50 (Huh-7) was 5.47 µM.

On to `COC(=O)Nc1nc2ccc(Sc3ccccc3)cc2[nH]1` [Fenbendazole, reference compound], for which the midpoint of inhibition (Huh-7), the IC50, lay at 0.419 µM.

For the setting “Huh-7”, `O=c1[nH]c(=O)n([C@H]2C[C@H](O)[C@@H](CO)O2)cc1F` [Floxuridine, floxuridine, reference compound] showed a half-maximal inhibitory concentration (IC50) of 0.0045 µM.

As to `Cc1c(O)cccc1C(=O)N[C@@H](CSc1ccccc1)[C@H](O)CN1C[C@H]2CCCC[C@H]2C[C@H]1C(=O)NC(C)(C)C` [Nelfinavir (e.g., mesylate), nelfinavir, reference compound], the IC50 (Huh-7) was 4.25 µM.

Consider `CCN(CC)CCOCCOC(=O)C(CC)(CC)c1ccccc1` [Oxeladin, reference compound], for which the concentration for half-maximal inhibition (IC50) (Huh-7) worked out at 8.72 µM.

Take `Nc1nc(Cl)nc2c1ncn2[C@H]1C[C@H](O)[C@@H](CO)O1` [Cladribine, 2-chloro-2′-deoxyadenosine, reference compound]: the IC50 (Huh-7) was found to be 0.112 µM.

As for `O=C1CC(O)(c2ccccc2)Oc2ccccc21` (centres unmarked) [2-Hydroxyflavanone, 2-hydroxyflavanone, reference compound], the IC50 (Huh-7) was determined as 2.48 µM.

Compound `CC(C)N1CCN(c2ccc(OCC3COC(Cn4cncn4)(c4ccc(Cl)cc4Cl)O3)cc2)CC1` (centres unmarked) [Terconazole, reference compound] gave an IC50 (Huh-7) of 2.55 µM.

The compound `O=C1Nc2ccc(Cl)cc2[C@@](C#CC2CC2)(C(F)(F)F)O1` [Efavirenz, efavirenz, reference compound] yielded an IC50 (Huh-7) of 15.5 µM.

For `CCCCOc1ccc(CC(=O)NO)cc1` [Bufexamac, bufexamac, reference compound], half-maximal inhibition (Huh-7) (IC50) was put at 8.29 µM.

Under “Huh-7”, `Oc1ccc(O)cc1` [Hydroquinone, reference compound] returned a half-maximal inhibitory concentration (IC50) of 14 µM.

`CCCCCCCCCCCCCCOc1ccc(C(=O)O)o1` [TOFA, 5-(tetradecyloxy)-2-furancarboxylic acid, reference compound] gave an IC50 (Huh-7) of 5.53 µM.

For the compound `COc1cc(C(=O)NS(=O)(=O)c2ccccc2C)ccc1Cc1cn(C)c2ccc(NC(=O)OC3CCCC3)cc12` [Zafirlukast, reference compound], the IC50 runs as follows: (Huh-7) 18.5 µM; (Huh-7, read-out: IC50 in our hands) 18.5 µM.

The compound `CC1=C(/C=C/C(C)=C/C=C/C(C)=C/C(=O)Nc2ccc(O)cc2)C(C)(C)CCC1` [Fenretinide, reference compound] gave a half-maximal inhibitory concentration (IC50) (Huh-7) of 2.26 µM.

Take `C[C@@H]1C[C@@H]([C@H](O)CC2CC(=O)NC(=O)C2)C(=O)[C@@H](C)C1` [Cycloheximide, reference compound]: the half-maximal inhibitory concentration (IC50) (Huh-7) was determined as 0.184 µM.

`O=C(c1ccc(OCCN2CCCCC2)cc1)c1c(-c2ccc(O)cc2)sc2cc(O)ccc12` [Raloxifene (e.g., hydrochloride), Raloxifene, reference compound] gave a half-inhibitory concentration (IC50) (Huh-7) of 3.74 µM.

Consider `CC(=O)[C@H]1CC[C@H]2[C@@H]3C=CC4=CC(=O)CC[C@@]4(C)[C@@H]3CC[C@]12C` [Dydrogesterone, reference compound], for which the IC50 (Huh-7) was 2.75 µM.

`COC(=O)[C@H]1[C@H]2C[C@@H]3c4[nH]c5cc(OC)ccc5c4CCN3C[C@H]2C[C@@H](OC(=O)c2cc(OC)c(OC)c(OC)c2)[C@@H]1OC` [Reserpine, reference compound] showed an IC50 (Huh-7) of 25.3 µM.

Take `CNCc1cc(S(N)(=O)=O)ccc1Oc1ccc(Br)cc1` [Compound 44, 4-(4-bromophenoxy)-3-((methylamino)methyl)benzenesulfonamide]: under “Huh-7, read-out: Max Effect@CC30 (inhibition)”, the Emax is 32.1%.

Regarding `C[C@@]1(O)[C@H](O)[C@@H](CO)O[C@H]1n1ccc(N)nc1=O` [2′-C-Methylcytidine, 2′-C-methylcytidine, reference compound], half-maximal inhibition (Huh-7) (IC50) was put at 1.63 µM.

Under “Huh-7”, `Nc1cccc(OCCCCCOc2cccc(N)c2)c1` [3,3′-(Pentamethylenedioxy)dianiline, reference compound] gave an IC50 of 1.63 µM.

On to `CCCCC1C(=O)NN(c2ccccc2)C1=O` (centres unmarked) [Mofebutazone, mofebutazone, reference compound], for which inhibition (Huh-7) was half-maximal at 14.6 µM (IC50).

`CCC(C)(C)C(=O)O[C@H]1C[C@@H](C)C=C2C=C[C@H](C)[C@H](CC[C@@H]3C[C@@H](O)CC(=O)O3)[C@H]21` [Simvastatin, simvastatin, reference compound] had an IC50 (Huh-7) of 21.3 µM.

For the compound `C[C@H]1[C@@H](O)O[C@@H]2O[C@@]3(C)CC[C@H]4[C@H](C)CC[C@@H]1[C@@]24OO3` [Dihydroartemisinin, dihydroartemisinin, reference compound], the 50% inhibitory concentration (IC50) (Huh-7) was 3.87 µM.

With `CN(C)C(=S)SSC(=S)N(C)C` [Thiram, thiram], under “Huh-7”, the IC50 is 3.64 µM.

For the compound `C[C@@H]1CC[C@H]2[C@@H](C)C(=O)O[C@@H]3O[C@]4(C)CC[C@@H]1[C@]32OO4` [Artemisinin, artemisinin, reference compound], where the note is “Huh-7”, half-maximal inhibition (IC50) was put at 4.45 µM.

The compound `CCC(C)(C)c1ccc(CC(C)CN2C[C@@H](C)O[C@@H](C)C2)cc1` (some centres unmarked) [Amorolfine (e.g., hydrochloride), amorolfine, reference compound] had a half-inhibitory concentration (IC50) (Huh-7) of 1.62 µM.

`CN/C(=N\c1ccc(C2=NNC(=O)CC2C)cc1)NC#N` (centres unmarked) [Siguazodan, reference compound] registered a half-maximal inhibitory concentration (IC50) (Huh-7) of 2.2 µM.

As to `c1ccc(-c2ccc(C(c3ccccc3)n3ccnc3)cc2)cc1` (centres unmarked) [Bifonazole, reference compound], the half-inhibitory concentration (IC50) (Huh-7) is 6.15 µM.

With `CC(=O)Oc1ccccc1C(=O)Nc1ncc([N+](=O)[O-])s1` [Nitazoxanide, nitazoxanide, reference compound], the 50% inhibitory concentration (IC50) (Huh-7) came to 14 µM.

Where the note is “Huh-7”, `CCC[C@H](NC(=O)[C@@H]1[C@H]2CCC[C@H]2CN1C(=O)[C@@H](NC(=O)[C@@H](NC(=O)c1cnccn1)C1CCCCC1)C(C)(C)C)C(=O)C(=O)NC1CC1` [Telaprevir (VX-950), vx-950, reference compound] yielded an IC50 of 0.529 µM.

Compound `CN(C)CCCN1c2ccccc2CCc2ccccc21` [Imipramine (e.g., hydrochloride), Imipramine, reference compound] yielded a concentration for half-maximal inhibition (IC50) (Huh-7) of 16.9 µM.

Consider `CCN(CC)CCCC(C)Nc1c2ccc(Cl)cc2nc2ccc(OC)cc12` (centres unmarked) [Quinacrine, reference compound], for which the IC50 (Huh-7) was determined as 4.17 µM.

For the compound `Nc1ccccc1OCCCCCOc1ccccc1N` [2,2′-(Pentamethylenedioxy)dianiline, reference compound], under “Huh-7”, the IC50 turned out to be 0.27 µM.

As for `CN1CCCCC1CCN1c2ccccc2Sc2ccc([S+](C)[O-])cc21` (centres unmarked) [Mesoridazine (e.g., Besylate), mesoridazine, reference compound], under “Huh-7”, half-maximal inhibition (IC50) was put at 19 µM.

In turn, `COc1cc2c(cc1OC)-c1c/c(=N\c3c(C)cc(C)cc3C)n(C)c(=O)n1CC2` [Trequinsin (e.g., hydrochloride), Trequinsin, reference compound] came in with a concentration for half-maximal inhibition (IC50) (Huh-7) of 2.93 µM.

`CCCCC(CC)COC(=O)/C=C/c1ccc(OC)cc1` (centres unmarked) [Octyl Methoxycinnamate, reference compound] yielded an IC50 (Huh-7) of 1.24 µM.

The compound `CCCOc1ccc2nc(NC(=O)OC)[nH]c2c1` [Oxibendazole, reference compound] displayed an IC50 (Huh-7) of 0.3 µM.

Take `O=C1CC(=O)c2c(Cl)c(Cl)c(Cl)c(Cl)c21` [UCH-L3 inhibitor, 4,5,6,7-Tetrachloroindan-1,3-dione, reference compound]: under “GETYPE1B, Huh-7, read-out: IC25 (values noted with an asterisk)”, the IC25 worked out at 19.7 µM.

`CC(C)(C)NC(=O)NC(C(=O)N1C[C@H]2[C@@H]([C@H]1C(=O)NC(CC1CCC1)C(=O)C(N)=O)C2(C)C)C(C)(C)C` (some centres unmarked) [Boceprevir (SCH 503034), Boceprevir, reference compound] displayed a half-maximal inhibitory concentration (IC50) (Huh-7) of 0.259 µM.

Under “Huh-7”, `CN(C)C/C=C(/c1ccc(Br)cc1)c1cccnc1` [Zimelidine (e.g., dihydrochloride), Zimelidine, reference compound] yielded an IC50 of 15.1 µM.

`C=C1C(=O)O[C@H]2[C@H]1CC/C(C)=C/CC[C@@]1(C)O[C@@H]21` [Parthenolide, reference compound] gave an IC50 (Huh-7) of 2.69 µM.

Consider `CC1=C(O)C(=O)C=C2C1=CC=C1[C@@]2(C)CC[C@@]2(C)[C@@H]3C[C@](C)(C(=O)O)CC[C@]3(C)CC[C@]12C` [Celastrol, reference compound], for which the concentration for half-maximal inhibition (IC50) (Huh-7) was found to be 0.449 µM.
